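Values below derive from 48-hour exposures of cells grown in 96-well plates, with endpoints linearly interpolated between the two concentrations bracketing the appropriate inhibition level. GI50 is the concentration that inhibits growth by half. TGI denotes the concentration required for complete inhibition of growth.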
Key:
Experiment in all cases: DTP human tumour cell line panel, 48 h
OVCAR-8 ovarian = system: OVCAR-8 ovarian
SK-MEL-2 melanoma = system: SK-MEL-2 melanoma
HCC-2998 colon = system: HCC-2998 colon
SK-MEL-5 melanoma = system: SK-MEL-5 melanoma
SN12C renal = system: SN12C renal
T-47D breast = system: T-47D breast
K-562 leukemia = system: K-562 leukemia
786-0 renal = system: 786-0 renal
HCT-116 colon = system: HCT-116 colon
HOP-62 NSCLC = system: HOP-62 NSCLC
COLO 205 colon = system: COLO 205 colon
A498 renal = system: A498 renal
OVCAR-5 ovarian = system: OVCAR-5 ovarian
HCT-15 colon = system: HCT-15 colon
ACHN renal = system: ACHN renal
RXF 393 renal = system: RXF 393 renal
NCI-H460 lung = system: NCI-H460 lung
NCI-H23 lung = system: NCI-H23 lung
HT29 colon = system: HT29 colon
NCI-H226 lung = system: NCI-H226 lung
LOX IMVI melanoma = system: LOX IMVI melanoma
U251 CNS = system: U251 CNS
RPMI-8226 leukemia = system: RPMI-8226 leukemia
HOP-92 NSCLC = system: HOP-92 NSCLC
HS 578T breast = system: HS 578T breast
OVCAR-3 ovarian = system: OVCAR-3 ovarian
SW-620 colon = system: SW-620 colon
KM12 colon = system: KM12 colon
SNB-75 CNS = system: SNB-75 CNS
NCI-H522 lung = system: NCI-H522 lung
MDA-MB-435 = system: MDA-MB-435
DU-145 prostate = system: DU-145 prostate
SNB-19 CNS = system: SNB-19 CNS
A549 NSCLC = system: A549 NSCLC
CAKI-1 renal = system: CAKI-1 renal
MOLT-4 leukemia = system: MOLT-4 leukemia
UO-31 renal = system: UO-31 renal
PC-3 prostate = system: PC-3 prostate
MDA-MB-231 breast = system: MDA-MB-231 breast
NCI/ADR-RES ovarian = system: NCI/ADR-RES ovarian
BT-549 breast = system: BT-549 breast
UACC-257 melanoma = system: UACC-257 melanoma
CCRF-CEM leukemia = system: CCRF-CEM leukemia
UACC-62 melanoma = system: UACC-62 melanoma
SK-OV-3 ovarian = system: SK-OV-3 ovarian
SF-268 CNS = system: SF-268 CNS
SK-MEL-28 melanoma = system: SK-MEL-28 melanoma
M14 melanoma = system: M14 melanoma
EKVX NSCLC = system: EKVX NSCLC
MCF7 breast = system: MCF7 breast
SF-295 CNS = system: SF-295 CNS
SF-539 CNS = system: SF-539 CNS
IGROV1 ovarian = system: IGROV1 ovarian
OVCAR-4 ovarian = system: OVCAR-4 ovarian

Compound: c1ccc(N2CCN(CN3CCN(c4ccccc4)C3)C2)cc1
- GI50 (OVCAR-8 ovarian): > 100 µM
- TGI (OVCAR-8 ovarian): > 100 µM
- GI50 (SK-MEL-2 melanoma): > 100 µM
- TGI (SK-MEL-2 melanoma): > 100 µM
- GI50 (HCC-2998 colon): > 100 µM
- TGI (HCC-2998 colon): > 100 µM
- GI50 (SK-MEL-5 melanoma): > 100 µM
- TGI (SK-MEL-5 melanoma): > 100 µM
- GI50 (SN12C renal): > 100 µM
- TGI (SN12C renal): > 100 µM
- GI50 (T-47D breast): > 100 µM
- TGI (T-47D breast): > 100 µM
- GI50 (K-562 leukemia): 3.9 µM
- TGI (K-562 leukemia): > 100 µM
- GI50 (786-0 renal): > 100 µM
- TGI (786-0 renal): > 100 µM
- GI50 (HCT-116 colon): 41.9 µM
- TGI (HCT-116 colon): > 100 µM
- GI50 (HOP-62 NSCLC): > 100 µM
- TGI (HOP-62 NSCLC): > 100 µM
- GI50 (COLO 205 colon): > 100 µM
- TGI (COLO 205 colon): > 100 µM
- GI50 (A498 renal): 37.2 µM
- TGI (A498 renal): > 100 µM
- GI50 (OVCAR-5 ovarian): > 100 µM
- TGI (OVCAR-5 ovarian): > 100 µM
- GI50 (HCT-15 colon): > 100 µM
- TGI (HCT-15 colon): > 100 µM
- GI50 (ACHN renal): 54 µM
- TGI (ACHN renal): > 100 µM
- GI50 (RXF 393 renal): > 100 µM
- TGI (RXF 393 renal): > 100 µM
- GI50 (NCI-H460 lung): > 100 µM
- TGI (NCI-H460 lung): > 100 µM
- GI50 (NCI-H23 lung): > 100 µM
- TGI (NCI-H23 lung): > 100 µM
- GI50 (HT29 colon): > 100 µM
- TGI (HT29 colon): > 100 µM
- GI50 (NCI-H226 lung): > 100 µM
- TGI (NCI-H226 lung): > 100 µM
- GI50 (LOX IMVI melanoma): 66.6 µM
- TGI (LOX IMVI melanoma): > 100 µM
- GI50 (U251 CNS): > 100 µM
- TGI (U251 CNS): > 100 µM
- GI50 (RPMI-8226 leukemia): 60.9 µM
- TGI (RPMI-8226 leukemia): > 100 µM
- GI50 (HOP-92 NSCLC): > 100 µM
- TGI (HOP-92 NSCLC): > 100 µM
- GI50 (HS 578T breast): > 100 µM
- TGI (HS 578T breast): > 100 µM
- GI50 (OVCAR-3 ovarian): > 100 µM
- TGI (OVCAR-3 ovarian): > 100 µM
- GI50 (SW-620 colon): 60.7 µM
- TGI (SW-620 colon): > 100 µM
- GI50 (KM12 colon): > 100 µM
- TGI (KM12 colon): > 100 µM
- GI50 (SNB-75 CNS): > 100 µM
- TGI (SNB-75 CNS): > 100 µM
- GI50 (NCI-H522 lung): > 100 µM
- TGI (NCI-H522 lung): > 100 µM
- GI50 (MDA-MB-435): > 100 µM
- TGI (MDA-MB-435): > 100 µM
- GI50 (DU-145 prostate): > 100 µM
- TGI (DU-145 prostate): > 100 µM
- GI50 (SNB-19 CNS): > 100 µM
- TGI (SNB-19 CNS): > 100 µM
- GI50 (A549 NSCLC): > 100 µM
- TGI (A549 NSCLC): > 100 µM
- GI50 (CAKI-1 renal): > 100 µM
- TGI (CAKI-1 renal): > 100 µM
- GI50 (MOLT-4 leukemia): 23.8 µM
- TGI (MOLT-4 leukemia): > 100 µM
- GI50 (UO-31 renal): > 100 µM
- TGI (UO-31 renal): > 100 µM
- GI50 (PC-3 prostate): > 100 µM
- TGI (PC-3 prostate): > 100 µM
- GI50 (MDA-MB-231 breast): > 100 µM
- TGI (MDA-MB-231 breast): > 100 µM
- GI50 (NCI/ADR-RES ovarian): > 100 µM
- TGI (NCI/ADR-RES ovarian): > 100 µM
- GI50 (BT-549 breast): > 100 µM
- TGI (BT-549 breast): > 100 µM
- GI50 (UACC-257 melanoma): > 100 µM
- TGI (UACC-257 melanoma): > 100 µM
- GI50 (CCRF-CEM leukemia): 42 µM
- TGI (CCRF-CEM leukemia): > 100 µM
- GI50 (UACC-62 melanoma): > 100 µM
- TGI (UACC-62 melanoma): > 100 µM
- GI50 (SK-OV-3 ovarian): > 100 µM
- TGI (SK-OV-3 ovarian): > 100 µM
- GI50 (SF-268 CNS): > 100 µM
- TGI (SF-268 CNS): > 100 µM
- GI50 (SK-MEL-28 melanoma): > 100 µM
- TGI (SK-MEL-28 melanoma): > 100 µM
- GI50 (M14 melanoma): > 100 µM
- TGI (M14 melanoma): > 100 µM
- GI50 (EKVX NSCLC): > 100 µM
- TGI (EKVX NSCLC): > 100 µM
- GI50 (MCF7 breast): > 100 µM
- TGI (MCF7 breast): > 100 µM
- GI50 (SF-295 CNS): > 100 µM
- TGI (SF-295 CNS): > 100 µM
- GI50 (SF-539 CNS): > 100 µM
- TGI (SF-539 CNS): > 100 µM
- GI50 (IGROV1 ovarian): 25.5 µM
- TGI (IGROV1 ovarian): > 100 µM
- GI50 (OVCAR-4 ovarian): > 100 µM
- TGI (OVCAR-4 ovarian): > 100 µM
